Laboratory results: the supplement of paper PMC13380429

Assays:
Details in all cases: 72 h
Calu-3 [1] = assay: relative viability EC50 (midpoint between 100% and the lowest measured viability); higher = less toxic
HepG2 [2] = assay: as above
Caco-2 [3] = assay: as above
Calu-3 [4] = assay: cell viability relative to DMSO; higher = less toxic
HepG2 [5] = assay: as above
Caco-2 [6] = assay: as above
Calu-3 [7] = assay: drug sensitivity score (DSS) for viability; higher = more toxic; extreme values may be limits of the assay
HepG2 [8] = assay: as above
Caco-2 [9] = assay: as above
Vero E6 [10] = assay: relative viability EC50 (midpoint between 100% and the lowest measured viability); higher = less toxic
U2OS [11] = assay: as above
Vero E6 [12] = assay: cell viability relative to DMSO; higher = less toxic
U2OS [13] = assay: as above
Vero E6 [14] = assay: drug sensitivity score (DSS) for viability; higher = more toxic; extreme values may be limits of the assay
U2OS [15] = assay: as above

## O=[N+]([O-])c1cncn1CCN1CCOCC1 [nimorazole]
Calu-3 [1]
  relative viability EC50: > 10 µM
HepG2 [2]
  relative viability EC50: > 10 µM
Caco-2 [3]
  relative viability EC50: > 10 µM
Calu-3 [4]; 1 nM
  cell viability: 102%
Calu-3 [4]; 10 nM
  cell viability: 105%
Calu-3 [4]; 100 nM
  cell viability: 94.6%
Calu-3 [4]; 1000 nM
  cell viability: 108%
Calu-3 [4]; 10000 nM
  cell viability: 93.9%
HepG2 [5]; 1 nM
  cell viability: 118%
HepG2 [5]; 10 nM
  cell viability: 112%
HepG2 [5]; 100 nM
  cell viability: 97.2%
HepG2 [5]; 1000 nM
  cell viability: 98.7%
HepG2 [5]; 10000 nM
  cell viability: 117%
Caco-2 [6]; 1 nM
  cell viability: 102%
Caco-2 [6]; 10 nM
  cell viability: 107%
Caco-2 [6]; 100 nM
  cell viability: 94.8%
Caco-2 [6]; 1000 nM
  cell viability: 106%
Caco-2 [6]; 10000 nM
  cell viability: 96.3%
Calu-3 [7]
  drug sensitivity score: 0
HepG2 [8]
  drug sensitivity score: 0
Caco-2 [9]
  drug sensitivity score: 0

## CC[C@@H]([C@H](C)O)n1ncn(-c2ccc(N3CCN(c4ccc(OC[C@@H]5CO[C@@](Cn6cncn6)(c6ccc(F)cc6F)C5)cc4)CC3)cc2)c1=O [posaconazole]
Vero E6 [10]
  relative viability EC50: 2.13 µM
Calu-3 [1]
  relative viability EC50: > 10 µM
HepG2 [2]
  relative viability EC50: 2.81 µM
U2OS [11]
  relative viability EC50: > 10 µM
Vero E6 [12]; 1 nM
  cell viability: 98.8%
Vero E6 [12]; 10 nM
  cell viability: 106%
Vero E6 [12]; 100 nM
  cell viability: 93.4%
Vero E6 [12]; 1000 nM
  cell viability: 92.8%
Vero E6 [12]; 10000 nM
  cell viability: 43.2%
Calu-3 [4]; 1 nM
  cell viability: 106%
Calu-3 [4]; 10 nM
  cell viability: 103%
Calu-3 [4]; 100 nM
  cell viability: 91.5%
Calu-3 [4]; 1000 nM
  cell viability: 92.9%
Calu-3 [4]; 10000 nM
  cell viability: 93%
HepG2 [5]; 1 nM
  cell viability: 97.8%
HepG2 [5]; 10 nM
  cell viability: 86.9%
HepG2 [5]; 100 nM
  cell viability: 105%
HepG2 [5]; 1000 nM
  cell viability: 96.6%
HepG2 [5]; 10000 nM
  cell viability: 27.5%
Caco-2 [6]; 1 nM
  cell viability: 97.6%
Caco-2 [6]; 10 nM
  cell viability: 99%
Caco-2 [6]; 100 nM
  cell viability: 94.3%
Caco-2 [6]; 1000 nM
  cell viability: 86.7%
Caco-2 [6]; 10000 nM
  cell viability: 70.2%
U2OS [13]; 1 nM
  cell viability: 92.9%
U2OS [13]; 10 nM
  cell viability: 101%
U2OS [13]; 100 nM
  cell viability: 93.7%
U2OS [13]; 1000 nM
  cell viability: 90%
U2OS [13]; 10000 nM
  cell viability: 93.8%
Vero E6 [14]
  drug sensitivity score: 4.3
Calu-3 [7]
  drug sensitivity score: 0
HepG2 [8]
  drug sensitivity score: 4.5
Caco-2 [9]
  drug sensitivity score: 2.4
U2OS [15]
  drug sensitivity score: 0

## Nc1nc(N)c2nc(-c3cccc(O)c3)cnc2n1
Vero E6 [10]
  relative viability EC50: > 10 µM
Calu-3 [1]
  relative viability EC50: 1.4 µM
HepG2 [2]
  relative viability EC50: 2 µM
Caco-2 [3]
  relative viability EC50: > 10 µM
Vero E6 [12]; 1 nM
  cell viability: 103%
Vero E6 [12]; 10 nM
  cell viability: 95.5%
Vero E6 [12]; 100 nM
  cell viability: 97.7%
Vero E6 [12]; 1000 nM
  cell viability: 98.4%
Vero E6 [12]; 10000 nM
  cell viability: 86.7%
Calu-3 [4]; 1 nM
  cell viability: 99.9%
Calu-3 [4]; 10 nM
  cell viability: 97.5%
Calu-3 [4]; 100 nM
  cell viability: 103%
Calu-3 [4]; 1000 nM
  cell viability: 80%
Calu-3 [4]; 10000 nM
  cell viability: 34.1%
HepG2 [5]; 1 nM
  cell viability: 98.1%
HepG2 [5]; 10 nM
  cell viability: 99.7%
HepG2 [5]; 100 nM
  cell viability: 102%
HepG2 [5]; 1000 nM
  cell viability: 92.5%
HepG2 [5]; 10000 nM
  cell viability: 49.6%
Caco-2 [6]; 1 nM
  cell viability: 93.5%
Caco-2 [6]; 10 nM
  cell viability: 105%
Caco-2 [6]; 100 nM
  cell viability: 99.1%
Caco-2 [6]; 1000 nM
  cell viability: 84.5%
Caco-2 [6]; 10000 nM
  cell viability: 86.1%
U2OS [13]; 1 nM
  cell viability: 95.6%
U2OS [13]; 10 nM
  cell viability: 99.4%
U2OS [13]; 100 nM
  cell viability: 99.7%
U2OS [13]; 1000 nM
  cell viability: 95.5%
U2OS [13]; 10000 nM
  cell viability: 51.7%
Vero E6 [14]
  drug sensitivity score: 0.2
Calu-3 [7]
  drug sensitivity score: 6.6
HepG2 [8]
  drug sensitivity score: 3.9
Caco-2 [9]
  drug sensitivity score: 1.6
U2OS [15]
  drug sensitivity score: 3.2

## O=C(Cc1ccc(Cl)c(Cl)c1)N1CCCC[C@@H]1CN1CCCC1
Vero E6 [10]
  relative viability EC50: > 10 µM
Calu-3 [1]
  relative viability EC50: > 10 µM
HepG2 [2]
  relative viability EC50: > 10 µM
Caco-2 [3]
  relative viability EC50: > 10 µM
Vero E6 [12]; 1 nM
  cell viability: 102%
Vero E6 [12]; 10 nM
  cell viability: 104%
Vero E6 [12]; 100 nM
  cell viability: 99.5%
Vero E6 [12]; 1000 nM
  cell viability: 105%
Vero E6 [12]; 10000 nM
  cell viability: 98.7%
Calu-3 [4]; 1 nM
  cell viability: 100%
Calu-3 [4]; 10 nM
  cell viability: 105%
Calu-3 [4]; 100 nM
  cell viability: 92.1%
Calu-3 [4]; 1000 nM
  cell viability: 109%
Calu-3 [4]; 10000 nM
  cell viability: 103%
HepG2 [5]; 1 nM
  cell viability: 95.8%
HepG2 [5]; 10 nM
  cell viability: 93.5%
HepG2 [5]; 100 nM
  cell viability: 99.1%
HepG2 [5]; 1000 nM
  cell viability: 89.8%
HepG2 [5]; 10000 nM
  cell viability: 83.5%
Caco-2 [6]; 1 nM
  cell viability: 85.2%
Caco-2 [6]; 10 nM
  cell viability: 97%
Caco-2 [6]; 100 nM
  cell viability: 104%
Caco-2 [6]; 1000 nM
  cell viability: 95.5%
Caco-2 [6]; 10000 nM
  cell viability: 102%
Vero E6 [14]
  drug sensitivity score: 0
Calu-3 [7]
  drug sensitivity score: 0
HepG2 [8]
  drug sensitivity score: 0.4
Caco-2 [9]
  drug sensitivity score: 0
